Where “and” joins values, the source holds several entries; their conditions need not be identical. Equal entries are not always repeated.
Test system: 855422-203-R-J1-PDC complex spheroid growth
Experiment: Anticancer human tumor 855422-203-R-J1-PDC patient-derived bladder carcinoma cell line growth inhibition [AhR]
Details: for viability, T/C: stronger effect = lower value
Method in brief: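 Agents were dosed in half-log steps down from roughly clinical Cmax, or from 10 microM where Cmax was unknown, alone and with AhR antagonists. Read-out: percent test/control growth of tumor spheroids containing HUVEC and MSC stromal cells.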

[1] = curve of first compound, second compound 0.1 µM
[2] = curve of first compound, second compound 0.316 µM
[3] = curve of first compound, second compound 1 µM
[4] = curve of first compound, second compound 3.16 µM
[5] = curve of first compound, second compound 10 µM
[6] = second compound 0.1 µM, first compound 0.0316 µM
[7] = second compound 0.1 µM, first compound 0.1 µM
[8] = second compound 0.1 µM, first compound 0.316 µM
[9] = second compound 0.1 µM, first compound 1 µM
[10] = second compound 0.1 µM, first compound 3.16 µM
[11] = second compound 0.1 µM, first compound 10 µM
[12] = second compound 0.316 µM, first compound 0.0316 µM
[13] = second compound 0.316 µM, first compound 0.1 µM
[14] = second compound 0.316 µM, first compound 0.316 µM
[15] = second compound 0.316 µM, first compound 1 µM
[16] = second compound 0.316 µM, first compound 3.16 µM
[17] = second compound 0.316 µM, first compound 10 µM
[18] = second compound 1 µM, first compound 0.0316 µM
[19] = second compound 1 µM, first compound 0.1 µM
[20] = second compound 1 µM, first compound 0.316 µM
[21] = second compound 1 µM, first compound 1 µM
[22] = second compound 1 µM, first compound 3.16 µM
[23] = second compound 1 µM, first compound 10 µM
[24] = second compound 3.16 µM, first compound 0.0316 µM
[25] = second compound 3.16 µM, first compound 0.1 µM
[26] = second compound 3.16 µM, first compound 0.316 µM
[27] = second compound 3.16 µM, first compound 1 µM
[28] = second compound 3.16 µM, first compound 3.16 µM
[29] = second compound 3.16 µM, first compound 10 µM
[30] = second compound 10 µM, first compound 0.0316 µM
[31] = second compound 10 µM, first compound 0.1 µM
[32] = second compound 10 µM, first compound 0.316 µM
[33] = second compound 10 µM, first compound 1 µM
[34] = second compound 10 µM, first compound 3.16 µM
[35] = second compound 10 µM, first compound 10 µM
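Also: spheroids exposed to agents for seven days before readout.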
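For viability, T/C in this document: percent of DMSO vehicle control luminescence viability.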

| Structure (SMILES) | IC50 [1] [nM] | IC50 [2] [nM] | IC50 [3] [nM] | IC50 [4] [nM] | IC50 [5] [nM] | viability, T/C [6] [%] | viability, T/C [7] [%] | viability, T/C [8] [%] | viability, T/C [9] [%] | viability, T/C [12] [%] | viability, T/C [13] [%] | viability, T/C [14] [%] | viability, T/C [15] [%] | viability, T/C [18] [%] | viability, T/C [19] [%] | viability, T/C [20] [%] | viability, T/C [21] [%] | viability, T/C [24] [%] | viability, T/C [25] [%] | viability, T/C [26] [%] | further results |
| --- | --- | --- | --- | --- | --- | --- | --- | --- | --- | --- | --- | --- | --- | --- | --- | --- | --- | --- | --- | --- | --- |
| NS(=O)(=O)OCC1CC(n2ccc3c(NC4CCc5ccccc54)ncnc32)CC1O (stereo not drawn) + CC(CO)NC(=O)c1cc(-c2ccc(Cl)cc2)nn(-c2cnn(C)c2)c1=O | 855 | 795 | 699 | 524 | 470 | 99.8 | 117 | 93 | 43.2 | 90.5 | 109 | 84.4 | 41.5 | 104 | 102 | 85.4 | 34.1 | 87 | 97.9 | 61.9 | viability, T/C [10]: 15.3%; viability, T/C [11]: 10.1%; viability, T/C [16]: 12.4%; viability, T/C [17]: 7.98%; viability, T/C [22]: 11.4%; viability, T/C [23]: 9.77%; viability, T/C [27]: 31.9%; viability, T/C [28]: 9.85%; viability, T/C [29]: 8.37%; viability, T/C [30]: 87.6%; viability, T/C [31]: 82.8%; viability, T/C [32]: 53.5%; viability, T/C [33]: 38.6%; viability, T/C [34]: 11.7%; viability, T/C [35]: 8.14% |
| CC[C@@]1(O)C(=O)OCc2c1cc1n(c2=O)Cc2cc3c(CN(C)C)c(O)ccc3nc2-1 | – | – | – | – | – | – | – | – | – | – | – | – | – | – | – | – | – | – | – | – | viability, T/C (compound 0.000316 µM): 93% and 97.1% and 101%; viability, T/C (compound 0.001 µM): 114% and 106% (2×); viability, T/C (compound 0.00316 µM): 98.4% and 103% and 105%; viability, T/C (compound 0.01 µM): 99.3% and 101% and 106%; viability, T/C (compound 0.0316 µM): 85% and 93.4% and 94.9%; viability, T/C (compound 0.1 µM): 22.1% and 33.6% and 47.4%; IC50 (curve of compound): 59.9 nM and 72.9 nM and 94.7 nM |
| Cc1ccccc1N=Nc1ccc(NC(=O)c2ccnn2C)c(C)c1 | – | – | – | – | – | – | – | – | – | – | – | – | – | – | – | – | – | – | – | – | viability, T/C (compound 0.1 µM): 98.6% [middle of 20 runs]; viability, T/C (compound 0.316 µM): 98.5% [middle of 20 runs]; viability, T/C (compound 1 µM): 101% [middle of 20 runs]; viability, T/C (compound 3.16 µM): 94.4% [middle of 20 runs]; viability, T/C (compound 10 µM): 80.9% [middle of 20 runs]; IC50 (compound alone, run of 06/14/2022): > 10000 nM |
| COc1cccc2c1C(=O)c1c(O)c3c(c(O)c1C2=O)CC(O)(C(=O)CO)CC3OC1CC(N)C(O)C(C)O1 (stereo not drawn) + Cc1ccccc1N=Nc1ccc(NC(=O)c2ccnn2C)c(C)c1 | < 31.6 | < 31.6 | < 31.6 | < 31.6 | < 31.6 | 47 | 32.6 | 7.99 | 2.76 | 32 | 24.1 | 6.58 | 2.77 | 45.6 | 25.8 | 6.31 | 2.89 | 39.9 | 26.4 | 4.8 | viability, T/C [10]: 2.93%; viability, T/C [11]: 5.62%; viability, T/C [16]: 2.16%; viability, T/C [17]: 3.66%; viability, T/C [22]: 2.5%; viability, T/C [23]: 4.52%; viability, T/C [27]: 3.4%; viability, T/C [28]: 1.63%; viability, T/C [29]: 3.98%; viability, T/C [30]: 39.6%; viability, T/C [31]: 29.7%; viability, T/C [32]: 6.61%; viability, T/C [33]: 2.6%; viability, T/C [34]: 2.02%; viability, T/C [35]: 3.27% |
| CC1COCCN1c1cc(-c2ccnn2C)c2ccnc(-c3ccn[nH]3)c2n1 (stereo not drawn) + Cc1ccccc1N=Nc1ccc(NC(=O)c2ccnn2C)c(C)c1 | 527 | 507 | 507 | 351 | 298 | 97.7 | 98.4 | 67.6 | 27.8 | 97.5 | 101 | 68 | 24.1 | 91 | 97.8 | 66 | 26.9 | 87.3 | 92.6 | 52.7 | viability, T/C (second compound 0.1 µM, first compound 0.00316 µM): 104%; viability, T/C (second compound 0.1 µM, first compound 0.01 µM): 99.4%; viability, T/C (second compound 0.316 µM, first compound 0.00316 µM): 101%; viability, T/C (second compound 0.316 µM, first compound 0.01 µM): 107%; viability, T/C (second compound 1 µM, first compound 0.00316 µM): 100%; viability, T/C (second compound 1 µM, first compound 0.01 µM): 106%; viability, T/C (second compound 3.16 µM, first compound 0.00316 µM): 88.6%; viability, T/C (second compound 3.16 µM, first compound 0.01 µM): 86.7%; viability, T/C [27]: 23%; viability, T/C (second compound 10 µM, first compound 0.00316 µM): 77.1%; viability, T/C (second compound 10 µM, first compound 0.01 µM): 83.5%; viability, T/C [30]: 76.4%; viability, T/C [31]: 73%; viability, T/C [32]: 48.7%; viability, T/C [33]: 20.9% |
| Nc1ccccc1NC(=O)c1ccc(CNC(=O)OCc2cccnc2)cc1 + Cc1ccccc1N=Nc1ccc(NC(=O)c2ccnn2C)c(C)c1 | 6310 | 6250 | 6860 | 6010 | 4290 | 101 | 106 | 100 | 107 | 103 | 101 | 104 | 107 | 106 | 105 | 109 | 111 | 97.4 | 92.7 | 92.1 | viability, T/C [10]: 78.4%; viability, T/C [11]: 31.1%; viability, T/C [16]: 84%; viability, T/C [17]: 26.5%; viability, T/C [22]: 91.2%; viability, T/C [23]: 29.8%; viability, T/C [27]: 98%; viability, T/C [28]: 86.2%; viability, T/C [29]: 21.1%; viability, T/C [30]: 85.3%; viability, T/C [31]: 84.3%; viability, T/C [32]: 87.4%; viability, T/C [33]: 86.3%; viability, T/C [34]: 61.6%; viability, T/C [35]: 18.2% |

Source: PubChem BioAssay AID1919005 (Molecular Pharmacology Branch, DTP, NCI, 2023)
